Results on 36 compounds are retold here after US9764046B2, “Labeling composition for intraocular tissue, labeling method of intraocular tissue, and screening method” (CANON KABUSHIKI KAISHA, priority 2008, dated 2017).

The nature of data set [1]: Excitation and fluorescence wavelengths by fluorescence spectrometer FL4500. The note with it: in nm (unit assumed). It counts as physicochemical.
Data set [2] has as its system intraocular tissue (retinal tissue incl. photoreceptor cell layer, vitreous body) of Zebrafish 7-day-old embryo. As to the kind of experiment: Staining of intraocular tissue of Zebrafish fry by exposure to staining liquid, ocular tissue section observed by confocal microscope. The format is in vivo. To be noted: Zebrafish 7 dpf fry, 1 μg/mL, 1 hour exposure, fixed ocular section.

[3] abbreviates: aqueous solution: 10 mg/mL DMSO solution diluted to 1/500 with purified water (Examples 1 to 94).

As for `Cn1c(=O)cc2c3c(c(NC4CCCCC4)ccc31)C(=O)c1ccccc1-2` [Compound 1], in data set [1] (setting [3]), the “λem (fluorescence wavelength)” value was found to be 619 and the “λex (excitation wavelength)” value is 599. For the same compound, the Staining ability entry in data set [2] is “++”.

Take `CCCCCC(CC)Nc1ccc2c3c(cc(=O)n2C)-c2ccccc2C(=O)c13` (stereo not drawn) [Compound 2]: in data set [1] (setting [3]), the “λem (fluorescence wavelength)” value was determined as 553 and the “λex (excitation wavelength)” value came to 486. Besides, the Staining ability result in data set [2] was “+++”.

Regarding `Cn1c(=O)cc2c3c(c(NCc4ccccc4)ccc31)C(=O)c1ccccc1-2` [Compound 3], in data set [1] (setting [3]), the “λem (fluorescence wavelength)” value is listed as 556 and the “λex (excitation wavelength)” value was 480. Also, the Staining ability result in data set [2] was “++”.

For `O=C1C=Cc2cc(S(=O)(=O)O)cc(S(=O)(=O)O)c2/C1=N/Nc1ccc(S(=O)(=O)O)c2ccccc12` [Compound 4], in data set [1] (setting [3]), the “λem (fluorescence wavelength)” value was 560 and the “λex (excitation wavelength)” value came out at 473. In data set [2], the Staining ability result is listed as “++”.

Turning to `Cn1/c(=C/C=C/C2=[N+](CCCS(=O)(=O)[O-])CCS2)oc(=O)/c1=C/C=C1\SCCN1CCCS(=O)(=O)[O-].[Na+]` [Compound 14], in data set [1], the “λem (fluorescence wavelength)” value was found to be 617 and the “λex (excitation wavelength)” value is 588. In data set [2], the Staining ability result is reported as “++”.

On to `CCN1/C(=C\C=C\C2=[N+](CC)c3ccccc3C23CCCCC3)C2(CCCCC2)c2ccccc21.[I-]` [Compound 15], for which, in data set [1] (setting [3]), the “λem (fluorescence wavelength)” value was 569 and the “λex (excitation wavelength)” value came to 496. Besides, the Staining ability entry in data set [2] was “+++”.

As for `CCC(/C=C1\Oc2ccc(-c3ccccc3)cc2N1CC)=C\c1oc2ccc(-c3ccccc3)cc2[n+]1CC.[I-]` [Compound 17], in data set [1] (setting [3]), the “λem (fluorescence wavelength)” value was 564 and the “λex (excitation wavelength)” value turned out to be 459. In addition, in data set [2], the Stained site is reported as 1 and the Staining ability result was “++”.

Take `CCN(CC)CC.O=S(=O)([O-])CCC[n+]1c(/C=C/C=C2\Sc3ccccc3N2CCCS(=O)(=O)O)sc2ccccc21` [Compound 19]: in data set [1] (setting [3]), the “λem (fluorescence wavelength)” value worked out at 576 and the “λex (excitation wavelength)” value came to 545. In data set [2], the Stained site was 1 and the Staining ability entry is given as “++”.

For `CCC(/C=C1\Sc2ccccc2N1CC)=C\c1sc2ccccc2[n+]1CC.[I-]` [Compound 20], in data set [1] (setting [3]), the “λem (fluorescence wavelength)” value is on record as 567 and the “λex (excitation wavelength)” value was 555. In data set [2], the Stained site is on record as 1 and the Staining ability result is “++”.

As to `CCC(/C=C1\Sc2c(ccc3ccccc23)N1CC)=C\c1sc2c3ccccc3ccc2[n+]1CC.[I-]` [Compound 21], in data set [1] (setting [3]), the “λem (fluorescence wavelength)” value was 377 and the “λex (excitation wavelength)” value was 334. The Staining ability entry in data set [2] was “++”.

As for `CCN1C=C/C(=C\C=C\c2oc3ccccc3[n+]2CC)c2ccccc21.[I-]` [Compound 22], in data set [1] (setting [3]), the “λem (fluorescence wavelength)” value amounted to 620 and the “λex (excitation wavelength)” value stood at 571. In data set [2], the Stained site is listed as 1 and the Staining ability result is “++”.

Turning to `CN(C)c1ccc(/C=C/C=C/c2sc3ccccc3[n+]2CC(=O)O)cc1.[Br-]` [Compound 24], in data set [1] (setting [3]), the “λem (fluorescence wavelength)” value came out at 692 and the “λex (excitation wavelength)” value is reported as 609. For the same compound, in data set [2], the Stained site is 1 and the Staining ability result is on record as “++”.

As to `O=C(O)CN1/C(=C/C2=C(Cl)C(=C/c3sc4ccccc4[n+]3CC(=O)O)/CCC2)Sc2ccccc21.[Br-]` [Compound 25], in data set [1] (setting [3]), the “λem (fluorescence wavelength)” value was determined as 671 and the “λex (excitation wavelength)” value is given as 635. Also, in data set [2], the Stained site amounted to 1 and the Staining ability result is “++”.

For the compound `CCN1C=C/C(=C\C=C\c2cc[n+](CC)c3ccccc23)c2ccccc21.[I-]` [Compound 26], in data set [1] (setting [3]), the “λem (fluorescence wavelength)” value is recorded as 715 and the “λex (excitation wavelength)” value was determined as 679. Moreover, in data set [2], the Stained site came out at 2 and the Staining ability result is on record as “++”.

Consider `CCN1/C(=C/C=C/c2sc3ccccc3[n+]2CC)Sc2ccccc21.[I-]` [Compound 27], for which, in data set [1] (setting [3]), the “λem (fluorescence wavelength)” value turned out to be 575 and the “λex (excitation wavelength)” value came to 485. Besides, in data set [2], the Stained site is recorded as 1 and the Staining ability entry was “++”.

For `CCCCCN1/C(=C/C=C/c2oc3ccccc3[n+]2CCCCC)Oc2ccccc21.[I-]` [Compound 29], in data set [1] (setting [3]), the “λem (fluorescence wavelength)” value is 509 and the “λex (excitation wavelength)” value amounted to 474. The Staining ability result in data set [2] is “++”.

For `O=C(O)CCN1/C(=C/C2=C(Cl)C(=C/c3sc4ccccc4[n+]3CCC(=O)O)/CCC2)Sc2ccccc21.[I-]` [Compound 31], in data set [1] (setting [3]), the “λem (fluorescence wavelength)” value came to 664 and the “λex (excitation wavelength)” value worked out at 495. Moreover, in data set [2], the Stained site was 2 and the Staining ability entry is reported as “++”.

For `CCN1C(=O)/C(=c2\s/c(=C/c3ccc(N(c4ccccc4)c4ccc5c(c4)C(C)(C)c4ccccc4-5)cc3)c(=O)n2CC(=O)O)SC1=S` [Compound 32], in data set [1] (setting [3]), the “λem (fluorescence wavelength)” value was determined as 640 and the “λex (excitation wavelength)” value is 558. Further, the Staining ability result in data set [2] was “++”.

Regarding `CC1(C)c2ccccc2-c2ccc(N(c3ccccc3)c3ccc(/C=C4/SC(=S)N(CC(=O)O)C4=O)cc3)cc21` [Compound 33], in data set [1] (setting [3]), the “λem (fluorescence wavelength)” value was found to be 628 and the “λex (excitation wavelength)” value was 512. The Staining ability result in data set [2] is listed as “++”.

On to `COc1ccc(N2c3ccc(/C=C4\SC(=S)N(CC(=O)O)C4=O)cc3[C@@H]3CCC[C@@H]32)cc1` [Compound 34], for which, in data set [1] (setting [3]), the “λem (fluorescence wavelength)” value is on record as 648 and the “λex (excitation wavelength)” value was found to be 571. Also, in data set [2], the Staining ability entry is on record as “++”.

For `O=C(O)CN1C(=O)/C(=C/c2ccc3c(c2)[C@@H]2CCC[C@@H]2N3c2ccc(C=C(c3ccccc3)c3ccccc3)cc2)SC1=S` [Compound 35], in data set [1] (setting [3]), the “λem (fluorescence wavelength)” value is listed as 655 and the “λex (excitation wavelength)” value was determined as 535. The Staining ability entry in data set [2] is “++”.

`O=C(O)CN1C(=O)/C(=C\c2ccc3c(c2)[C@@H]2CCC[C@@H]2N3c2ccccc2)SC1=S` [Compound 37]: in data set [1] (setting [3]), the “λem (fluorescence wavelength)” value was 633 and the “λex (excitation wavelength)” value was found to be 531. Further, the Staining ability result in data set [2] was “+++”.

As for `O=C(O)CN1C(=O)/C(=C\c2cc(Br)c3c(c2)[C@@H]2CCC[C@@H]2N3c2ccc(Br)cc2)SC1=S` [Compound 38], in data set [1] (setting [3]), the “λem (fluorescence wavelength)” value is 609 and the “λex (excitation wavelength)” value is reported as 482. Also, the Staining ability result in data set [2] was “++”.

Turning to `CCN1S/C(=c2\s/c(=C/c3ccc4c(c3)[C@@H]3CCC[C@@H]3N4Cc3ccccc3)c(=O)n2CC(=O)O)SC1=S` [Compound 39], in data set [1] (setting [3]), the “λem (fluorescence wavelength)” value worked out at 657 and the “λex (excitation wavelength)” value was found to be 576. Besides, the Staining ability entry in data set [2] is “++”.

`CCN1C(=S)S/C(=c2/s/c(=C/c3cc(Br)c4c(c3)[C@@H]3CCC[C@@H]3N4c3ccc(Br)cc3)c(=O)n2CC(=O)O)C1=S` [Compound 40]: in data set [1] (setting [3]), the “λem (fluorescence wavelength)” value is recorded as 671 and the “λex (excitation wavelength)” value is on record as 559. Further, the Staining ability entry in data set [2] is recorded as “++”.

Take `CCN1C(=O)/C(=c2\s/c(=C/c3ccc4c(c3)[C@@H]3CCC[C@@H]3N4c3ccc(OC)cc3)c(=O)n2CC(=O)O)SC1=S` [Compound 41]: in data set [1] (setting [3]), the “λem (fluorescence wavelength)” value came out at 679 and the “λex (excitation wavelength)” value stood at 582. Besides, in data set [2], the Staining ability entry was “++”.

As to `COc1ccc(N2c3ccc(/C=C4/SC(=S)N(CCC(=O)O)C4=O)cc3C3CCCC32)cc1` (stereo not drawn) [Compound 44], in data set [1] (setting [3]), the “λem (fluorescence wavelength)” value is on record as 651 and the “λex (excitation wavelength)” value is 564. The Staining ability entry in data set [2] was “++”.

Consider `O=C(O)C1=NN(c2ccccc2)C(=O)/C1=C\c1ccc2c(c1)C1CCCC1N2c1ccc(Cc2ccccc2)cc1` (stereo not drawn) [Compound 45], for which, in data set [1] (setting [3]), the “λem (fluorescence wavelength)” value amounted to 586 and the “λex (excitation wavelength)” value is listed as 481. The Staining ability result in data set [2] is given as “++”.

`O=C(O)CCN1C(=O)/C(=C\c2ccc3c(c2)C2CCCC2N3Cc2ccccc2)SC1=S` (stereo not drawn) [Compound 47]: in data set [1] (setting [3]), the “λem (fluorescence wavelength)” value is reported as 611 and the “λex (excitation wavelength)” value turned out to be 522. Moreover, the Staining ability result in data set [2] is listed as “++”.

`COc1ccc2cc(N3c4ccc(/C=C5\C(=O)N(c6ccc(C(=O)O)cc6)N=C5C)cc4C4CCCC43)ccc2c1` (stereo not drawn) [Compound 49]: in data set [1] (setting [3]), the “λem (fluorescence wavelength)” value was found to be 649 and the “λex (excitation wavelength)” value worked out at 569. The Staining ability result in data set [2] is “++”.

On to `CCOC(=O)CN1C(=O)/C(=C\c2cc(Br)c3c(c2)C2CCCC2N3c2ccc(Br)cc2)SC1=S` (stereo not drawn) [Compound 50], for which, in data set [1] (setting [3]), the “λem (fluorescence wavelength)” value worked out at 580 and the “λex (excitation wavelength)” value was 482. Further, the Staining ability entry in data set [2] is given as “++”.

As to `C=CCN1C(=O)S/C(=c2/s/c(=C/c3ccc4c(c3)C3CCCC3N4c3ccccc3)c(=O)n2CC(=O)OCC)C1=O` (stereo not drawn) [Compound 51], in data set [1] (setting [3]), the “λem (fluorescence wavelength)” value turned out to be 638 and the “λex (excitation wavelength)” value was 580. Besides, the Staining ability result in data set [2] is given as “++”.

Turning to `CCOC(=O)CN1C(=O)/C(=C\c2ccc3c(c2)C2CCCC2N3c2ccccc2)SC1=S` (stereo not drawn) [Compound 52], in data set [1] (setting [3]), the “λem (fluorescence wavelength)” value was found to be 638 and the “λex (excitation wavelength)” value was found to be 580. Also, in data set [2], the Staining ability entry is recorded as “++”.

Turning to `COc1ccc(N2c3ccc(/C=c4/s/c(=C5/SC(=O)N(Cc6ccccc6)C5=O)n(CC(=O)O)c4=O)cc3C3CCCC32)cc1` (stereo not drawn) [Compound 53], in data set [1] (setting [3]), the “λem (fluorescence wavelength)” value was found to be 712 and the “λex (excitation wavelength)” value is on record as 568. The Staining ability result in data set [2] is given as “++”.

Consider `CCOC(=O)Cn1c(=O)/c(=C\c2ccc3c(c2)C2CCCC2N3c2ccc3cc(OC)ccc3c2)s/c1=C1/SC(=O)N(CC)C1=O` (stereo not drawn) [Compound 54], for which, in data set [1] (setting [3]), the “λem (fluorescence wavelength)” value is 647 and the “λex (excitation wavelength)” value came to 597. The Staining ability entry in data set [2] was “++”.

Regarding `CCN1C(=O)S/C(=c2/s/c(=C/c3ccc4c(c3)C3CCCC3N4c3ccccc3)c(=O)n2CC(=O)O)C1=O` (stereo not drawn) [Compound 55], in data set [1] (setting [3]), the “λem (fluorescence wavelength)” value was found to be 644 and the “λex (excitation wavelength)” value is recorded as 502. Moreover, the Staining ability entry in data set [2] was “++”.
